Where “and” joins values, the source holds several entries; their conditions need not be identical. Identical values can stand only once. Like-named read-outs stand apart in the source and are kept apart here.
Tested on: panel of 66 cancer cell lines
Test: cancer cell line screen, proliferation assay (ATPlite, 72 h)
Format: cell-based, human
Settings: for IC50: Homo sapiens, read-out: IC50; for raw signal, dose-response (Figure S7a): rep1, rep2, listed as AVX420
Excerpt: Targeting specific molecular vulnerabilities in cancer is considered a key approach to reducing the adverse effects of chemotherapy. However, the events that govern the susceptibility to suppression of the cPLA2α in cancer remain largely unexplored. We therefore took the approach of screening the antiproliferative activity of AVX420 in a panel of 66 cancer cell lines (hereafter referred to as the cancer cell line screen or CCLS) to allow us to investigate molecular and genetic vulnerabilities to the drug.
Screening of compound activities in 66 cancer cell lines was carried out at the Netherlands Translation Research Center. Briefly, proliferation assays were performed 72 h after compound addition using ATPlite 1step reagent (Perkin Elmer). IC50s calculated by non-linear regression analysis were used as a measure of compound activity for investigating associations with genetic factors. A complete description of the laboratory and data analysis methods are available in the Supplementary Information file (Supplemental Methods: Cancer Cell Line Screening).
Cancer cell line screening
Cell proliferation assays
All cell lines were from the American Type Culture Collection (ATCC) Manassas, Virginia (US) and maintained under ATCC-recommended protocols and within 9 pas- […]
DMSO at -80°C until one hour before use. Cells exposed within one hour after thaw-ing of the compound stocks. Final compound concentration range in the assay was 10 […]
cated by supplier. Compounds were dissolved in 100 % DMSO and stored at room temperature. Final concentration of the reference compounds in the assay was 3.16x10-5 M to 3.16x10-9 M. The final DMSO concentration during incubation was […]
Cell lines were plated in Advanced RPMI 1640 (Gibco, ref 12633-012) cell culture medium, containing 1% Glutamax solution (Gibco, ref 35050-038), 0.4% Pen Strep solution (Gibco, ref 15140-122) and bovine serum. The cPLA2α inhibitors were tested in 0.5% bovine serum (HyClone, ref SH30072.03) with the exception of769-P, A-204, BT-549, SR, T98G, which were tested in the presence of 1.0% serum and A-704 and LNCaP FGS, which were tested in the in the presence of 10% serum. Reference com-pounds were all tested in the presence of 10% bovine serum.
Cells were dispensed in a 384-well plate, at a concentration of 200 - 3200 cells per well, depending on the cell line, in 45 μL medium. Plated cells were incubated in a humidified atmosphere of 5% CO2 at 37 °C. After 24 hours, 5 μL of compound dilu-tion was added and plates were further incubated for another 72 hours. After 72 hours, 25 μL of ATPlite 1Step™ (PerkinElmer) solution was added to each well, and subse-quently shaken for 2 minutes. After 10 minutes of incubation in the dark, the lumines-cence was recorded on an Envision multimode reader (PerkinElmer).
Cell growth control. The cellular doubling times of all cell lines are calculated from the t = 0 hours and t = 72 hours growth signals of the untreated cells. If the doubling time is out of specification (0.5 – 2.0 times deviating from historic average) the assay […]
IC50s were calculated by non-linear regression using IDBS XLfit 5. The percentage growth after 72h (%-growth) was calculated as follows: 100% x (luminescence t = 72h / luminescence untreated,t=72h). This was fitted to the 10log compound concentration (conc) by a 4-parameter logistics curve: %-growth = bottom + (top – bottom) / (1+ 10(logIC50 – conc)*hill)), where hill is the Hill-coefficient, and bottom and top the asymptotic mini-mum and maximum cell growth that the compound allows in that assay.
All analysis were performed in the statistical software package R and visualized using GraphPad Prism version 10.0 .0

CCCCCCCOc1ccc(OCC(=O)c2nc(C(=O)OC)cs2)cc1 [GK420]
IC50 (SJCRH30): 16.6 µM
IC50 (SK-N-AS): 14.2 µM
IC50 (SK-N-FI): 20 µM
IC50 (SNU-C2B): 19.3 µM
IC50 (SR): 12.5 µM
IC50 (SUP-T1, SUP-T1): 17.9 µM
IC50 (SW48, SW48): 22.6 µM
IC50 (SW480, SW480): 14.3 µM
IC50 (SW948, SW948): 21.1 µM
IC50 (SW-620, SW620): 20 µM
IC50 (T98G): 42.4 µM
IC50 (T-24, T24): 14.7 µM
IC50 (TT): 27.7 µM
IC50 (U2OS, U-2 OS): 8.01 µM
IC50 (U-87 MG): 20.3 µM
IC50 (VA-ES-BJ): 23 µM
pIC50 (Hs578T, breast): 4,834
pIC50 (J82, urinary_tract): 4,716
raw signal, dose-response (Figure S7a) (Jurkat E6.1, Log10 M -5): 18200 and 21347
raw signal, dose-response (Figure S7a) (Jurkat E6.1, Log10 M -5.5): 21213 and 30520
raw signal, dose-response (Figure S7a) (Jurkat E6.1, Log10 M -6.5): 2114520 and 2235427
raw signal, dose-response (Figure S7a) (Jurkat E6.1, Log10 M -7): 2341173 and 2551267
raw signal, dose-response (Figure S7a) (Jurkat E6.1, Log10 M -7.5): 2392960 and 2321813
raw signal, dose-response (Figure S7a) (Jurkat E6.1, Log10 M -8): 2356933 and 2578573
pIC50 (Jurkat, blood): 6,245
pIC50 (K562, blood): 4,814
raw signal, dose-response (Figure S7a) (K562, Log10 M -4): 74307 and 48600
raw signal, dose-response (Figure S7a) (K562, Log10 M -4.5): 1190933 and 1527307
raw signal, dose-response (Figure S7a) (K562, Log10 M -5): 13304880 and 13536973
raw signal, dose-response (Figure S7a) (K562, Log10 M -5.5): 15252080 and 16813307
pIC50 (KU812, blood): 5,039
raw signal, dose-response (Figure S7a) (KU812, Log10 M -4): 2867 and 5600
raw signal, dose-response (Figure S7a) (KU812, Log10 M -4.5): 66600 and 77573
raw signal, dose-response (Figure S7a) (KU812, Log10 M -5.5): 3841840 and 3310707
raw signal, dose-response (Figure S7a) (KU812, Log10 M -6): 3516360 and 3607827
raw signal, dose-response (Figure S7a) (KU812, Log10 M -6.5): 3576653 and 3459747
raw signal, dose-response (Figure S7a) (KU812, Log10 M -7): 3573240 and 3479493
raw signal, dose-response (Figure S7a) (KU812, Log10 M -7.5): 3396627 and 3395373
raw signal, dose-response (Figure S7a) (KU812, Log10 M -8): 3660107 and 3329680
pIC50 (LoVo, large_intestine): 4,781
pIC50 (MCF7, breast): 4,833
pIC50 (MG63, bone): 4,644
pIC50 (MIAPaCa2, pancreas): 4,884
raw signal, dose-response (Figure S7a) (MOLT-4, Log10 M -4): 6187 and 5813
raw signal, dose-response (Figure S7a) (MOLT-4, Log10 M -5): 64080 and 125733
raw signal, dose-response (Figure S7a) (MOLT-4, Log10 M -5.5): 4862747 and 5232987
raw signal, dose-response (Figure S7a) (MOLT-4, Log10 M -6): 6801747 and 6267067
raw signal, dose-response (Figure S7a) (MOLT-4, Log10 M -6.5): 7366227 and 6477733
raw signal, dose-response (Figure S7a) (MOLT-4, Log10 M -7): 6306707 and 6935720
raw signal, dose-response (Figure S7a) (MOLT-4, Log10 M -7.5): 6661907 and 6660467
raw signal, dose-response (Figure S7a) (MOLT-4, Log10 M -8): 6315747 and 6363187
pIC50 (MeWo, skin): 4,711
pIC50 (NCIH82, lung): 5,315
pIC50 (NCIH460, lung): 4,489
pIC50 (RPMI7951, skin): 4,852
pIC50 (RT4, urinary_tract): 4,477
pIC50 (SHP77, lung): 4,861
pIC50 (SKNAS, peripheral_nervous_system): 4,847
pIC50 (SKNFI, peripheral_nervous_system): 4,698
raw signal, dose-response (Figure S7a) (SR, Log10 M -4): 11267 and 10080
raw signal, dose-response (Figure S7a) (SR, Log10 M -4.5): 14987 and 22200
raw signal, dose-response (Figure S7a) (SR, Log10 M -5): 2171560 and 2105733
raw signal, dose-response (Figure S7a) (SR, Log10 M -5.5): 2501520 and 2976000
raw signal, dose-response (Figure S7a) (SR, Log10 M -6): 2547880 and 3067093
raw signal, dose-response (Figure S7a) (SR, Log10 M -6.5): 2848387 and 3116973
raw signal, dose-response (Figure S7a) (SR, Log10 M -7): 3165427 and 3131507
raw signal, dose-response (Figure S7a) (SR, Log10 M -7.5): 3036893 and 2296373
raw signal, dose-response (Figure S7a) (SR, Log10 M -8): 3222893 and 3197013
raw signal, dose-response (Figure S7a) (SUP-T1, Log10 M -4): 26587 and 37653
raw signal, dose-response (Figure S7a) (SUP-T1, Log10 M -5): 6935960 and 5931427
raw signal, dose-response (Figure S7a) (SUP-T1, Log10 M -5.5): 6473080 and 6695013
raw signal, dose-response (Figure S7a) (SUP-T1, Log10 M -6): 6511467 and 6816760
raw signal, dose-response (Figure S7a) (SUP-T1, Log10 M -6.5): 6737680 and 6611147
raw signal, dose-response (Figure S7a) (SUP-T1, Log10 M -7): 6237733 and 6274507
raw signal, dose-response (Figure S7a) (SUP-T1, Log10 M -7.5): 6362947 and 6848640
raw signal, dose-response (Figure S7a) (SUP-T1, Log10 M -8): 6336067 and 6341827
pIC50 (SUPT1, blood): 4,747
pIC50 (SW48, large_intestine): 4,646
pIC50 (SW480, large_intestine): 4,843
pIC50 (SW620, large_intestine): 4,698
pIC50 (SW948, large_intestine): 4,676
pIC50 (T24, urinary_tract): 4,833
pIC50 (T98G, central_nervous_system): 4,373
pIC50 (TT, thyroid): 4,558
pIC50 (U2OS, bone): 5,097
pIC50 (U87MG, central_nervous_system): 4,692
pIC50 (VAESBJ, soft_tissue): 4,638
